Like-named read-outs stand apart in the source and are kept apart here.
Key:
P. falciparum Dd2 = assay: In vitro antiplasmodial activity, 3H-hypoxanthine incorporation, strain Dd2; format: cell-based; details: Plasmodium falciparum, IC50 ± SD
Procedure: (§1) The following strains of Plasmodium falciparum were used in this study: F32 (Tanzania), Dd2 (SE Asia), K1 (SE Asia), FcB1 (Colombia), K14 (Cambodia) and 3D7 (Africa). […] Parasites at the ring stage (laboratory A) or asynchronous parasites (laboratory B) were grown in human A+ or O+ red blood cells at a 1.5% (laboratory A) or 2% (laboratory B) haematocrit and a 0.8–1% parasitaemia. Synchronization of the parasites was performed by sorbitol treatment.
(§2) Further dilutions were in complete culture medium. The complexes were tested for their inhibitory effect toward P. falciparum intraerythrocytic development. […] 100 μL from a culture at a 3% (laboratory A) or 4% (laboratory B) hematocrit in complete medium was added per well. […] Plates were freeze-thawed and harvested on filters. […] The percentage of growth inhibition was calculated from the parasite-associated radioactivity. 100% ^3H-hypoxanthine incorporation was determined from a control grown in the absence of drug or test compound.

[1] = In vitro microsomal metabolic stability; details: for microsomal CLint at 1 μM / half-life at 1 μM: human; for microsomal CLint at 1 μM: pH 7.4
Procedure: The evaluation of microsomal stability was performed by Cyprotex US, LLC, Watertown, MA. […] After separation on an HILIC HPLC colum (Sepax HILIC […] 2.1 x 30 mm) using an acetonitrile-water gradient system, peaks were analyzed by mass spectrometry (MS) using ESI ionization in MRM mode. The signal was optimized for each compound by ESI positive or negative ionization mode. An MS2 scan or an SIM scan was used to optimize the fragmenter voltage and a product ion analysis was used to identify the best fragment for analysis, and the collision energy was optimized using a product ion or MRM scan. An ionization ranking was assigned indicating the compound’s ease of ionization.
A control reaction omitting NADPH was performed for each compound in order to detect any NADPH-independent degradation. Aliquots were removed at 0, 10, 20, 40, and 60 min and mixed with an equal volume of ice-cold Stop Solution (methanol containing haloperidol, diclofenac, or other internal standard). The stopped reactions were further incubated for at least 10 min at -20°C, and an additional volume of water was added. The samples were centrifuged to remove precipitated protein, and the supernatants were analyzed by LC/MS/MS to quantify the remaining parent. Data were converted to % remaining by dividing by the time zero concentration value, and fitted to a first-order decay model to determine half-life values. Intrinsic clearance values were calculated from the half-life and protein concentrations by using the equation CLint = ln 2 / t1/2 [microsomal protein].

[2] = test system: P. falciparum K14 (CQ-resistant); assay: In vitro antiplasmodial activity, 3H-hypoxanthine incorporation, strain K14; format: cell-based; details: Plasmodium falciparum
Procedure: as §1, §2
(§3) IC50 ± SD values (nM) determined from independent experiments performed in triplicate under the conditions of laboratory B (Paris).

[3] = Cytotoxicity, MTT, MRC5 cells; format: cell-based; details: human, MRC-5 cells, concentration inducing 50% of cell growth arrest, five days
Procedure: (§4) The rat L-6 and human MRC-5 cell lines were routinely grown in RPMI 1640 supplemented with 11 mM glucose, 27.5 mM NaHCO3, 100 UI/mL penicillin, 100 μg/mL streptomycin and 10% fetal calf serum (RPMI-FCS), in a 5% CO2 incubator at 37°C. For cytotoxicity assays, 100 μL per well of a 2×10^4 cells/mL suspension in RPMI-FCS were deposited in a 96-well microplate and incubated overnight in culture conditions. Then decreasing concentrations of the compounds to test were established by twofold serial dilutions in RPMI-FCS and distributed at a rate of 100 μL per well and the microplate was put back in the incubator for an additional three (L-6) or five (MRC-5) day period. Then the supernatant in each well was discarded and replaced by 100 μL of MTT 1 mg/mL in RPMI-FCS. The microplate was re-incubated in culture conditions for three hours, then 100 μL of 10% SDS was added by well. The cells were left overnight in the incubator then the OD at 540nm was measured with the Bio-Tek FL600™ microplate reader equipped with the KC4™ software. […] The selectivity of each compound to P. falciparum was assessed through the selectivity index (SI), defined as CC50 (to L6 or MRC5 cells) / IC50 (to P. falciparum).

[4] = test system: P. falciparum 3D7 (CQ-sensitive); assay: In vitro antiplasmodial activity, 3H-hypoxanthine incorporation, strain 3D7; format: cell-based; details: Plasmodium falciparum, IC50 ± SD
Procedure: as §1, §2

[5] = Cytotoxicity, MTT, L6 cells; format: cell-based; details: rat, L-6 cells, concentration inducing 50% of cell growth arrest, three days
Procedure: as §4

[6] = test system: P. falciparum K1 (CQ-resistant); assay: In vitro antiplasmodial activity, 3H-hypoxanthine incorporation, strain K1; format: cell-based; details: Plasmodium falciparum, IC50 ± SD
Procedure: as §1, §2

[7] = test system: P. falciparum FcB1 (CQ-resistant); assay: In vitro antiplasmodial activity, 3H-hypoxanthine incorporation, strain FcB1; format: cell-based; details: Plasmodium falciparum
Procedure: as §1, §2, §3

[8] = test system: P. falciparum F32 (CQ-sensitive); assay: In vitro antiplasmodial activity, 3H-hypoxanthine incorporation, strain F32; format: cell-based; details: Plasmodium falciparum
Procedure: as §1, §2, §3

[9] = parameters: method as in PMID 11805197; details: elimination of the active metabolite after AQ; cited from earlier work
[10] = DD2, laboratory A (Marseille), 5% CO2, 10% O2, 85% N2, Dd2 CQ-resistant under these conditions, read-out: Antiplasmodial activity, IC50, Dd2
[11] = DD2, laboratory B (Paris), candle jar ~17% O2, 3% CO2, 80% N2, Dd2 CQ-sensitive under these conditions, read-out: Antiplasmodial activity, IC50, Dd2
[12] = human liver microsomes, pH 7.4, NADPH-dep. t1/2, human liver microsomes, [Compd] = 1 μM, [protein] = 0.3 mg/mL, with NADPH
[13] = human liver microsomes, pH 7.4, NADPH-free t1/2, human liver microsomes, [Compd] = 1 μM, [protein] = 0.3 mg/mL, without NADPH
[14] = 3D7, laboratory A (Marseille), 5% CO2, 10% O2, 85% N2, read-out: Antiplasmodial activity, IC50, 3D7
[15] = 3D7, laboratory B (Paris), candle jar ~17% O2, 3% CO2, 80% N2, read-out: Antiplasmodial activity, IC50, 3D7
[16] = K1, laboratory A (Marseille), 5% CO2, 10% O2, 85% N2, read-out: Antiplasmodial activity, IC50, K1
[17] = K1, laboratory B (Paris), candle jar ~17% O2, 3% CO2, 80% N2, read-out: Antiplasmodial activity, IC50, K1
[18] = FCB1, laboratory B (Paris), IC50 ± SD, read-out: Antiplasmodial activity, IC50, FcB1
[19] = F32, laboratory B (Paris), IC50 ± SD, read-out: Antiplasmodial activity, IC50, F32
[20] = laboratory B (Paris), IC50 ± SD, read-out: Antiplasmodial activity, IC50, K14

IC50 (P. falciparum Dd2; [10]) [nM] | IC50 (P. falciparum Dd2; [11]) [nM] | microsomal CLint at 1 μM ([1]; human liver microsomes) [µL/min/mg] | half-life at 1 μM [1, 12] [min] | half-life at 1 μM [1, 13] [min] | IC50 [4, 14] [nM] | IC50 [4, 15] [nM] | IC50 [6, 16] [nM] | IC50 [6, 17] [nM] | IC50 [7, 18] [nM] | IC50 [8, 19] [nM] | IC50 [2, 20] [nM] | Compound | CC50 at 5 days [3] [nM] | CC50 at 3 days [5] [nM] | also measured
20.7 ± 0.2 | 14.4 ± 0.5 | 466 ± 44 | ~5 | > 240 | 15.2 ± 1.57 | 12.9 ± 0.85 | 53.4 ± 2.03 | 11.8 ± 1 | 17.9 ± 1.7 | 16.9 ± 1 | – | CCN(CC)Cc1ccc(-c2ccc(CNc3ccnc4cc(Cl)ccc34)cc2)cc1 [Compound 4, 7-Chloro-N-((4’-((diethylamino)methyl)-[1,1’-biphenyl]-4-yl)methyl)quinolin-4-amine] | 2600 ± 120 | 2800 ± 150 | IC50 ([2]; under conditions A (as printed in text), read-out: IC50 against K14 strain): 7.5 nM
31.6 ± 7.77 | 11.3 ± 0.64 | – | – | – | 24.6 ± 3.06 | 11.9 ± 1 | 34.3 ± 0.58 | 9.6 ± 0.51 | – | – | – | CCN(CC)Cc1cc(Nc2ccnc3cc(Cl)ccc23)ccc1O [AQ, amodiaquine, reference compound] | – | – | microsomal CLint at 1 μM ([1]; microsomes): 431 ± 33.4 µL/min/mg; half-life at 1 μM ([1]; microsomes, pH 7.4, NADPH-dep. t1/2): 5.4 ± 0.42 min; half-life at 1 μM ([1]; microsomes, pH 7.4, NADPH-free t1/2): > 240 min; terminal half-life [9]: ~ 100 h
30.5 ± 2.12 | 17.7 ± 3.78 | 51.1 ± 3.06 | 45.3 ± 1.36 | > 240 | 17.3 ± 0.58 | 16.1 ± 2.44 | 60.3 ± 4.07 | 12.4 ± 0.4 | 31.5 ± 5.7 | 24.3 ± 2.9 | 33 ± 5.76 | CCN(CC)Cc1ccc(CNc2ccnc3cc(Cl)ccc23)cc1 [Compound 3, 7-Chloro-N-(4-((diethylamino)methyl)benzyl)quinolin-4-amine] | 13000 ± 2260 | 13800 ± 1900 | –
59 ± 1.85 | – | – | – | – | – | – | 63.7 ± 1.46 | 20.2 ± 6.55 | – | 25.4 ± 5.31 | 18.7 ± 1.16 | CCN(CC)CC1=C(CNc2ccnc3cc(Cl)ccc23)CC=CC1 [Compound 5, 7-Chloro-N-((2-((diethylamino)methyl)cyclohexa-1,4-dien-1-yl)methyl)quinolin-4-amine] | – | – | –
26.5 ± 5.07 | 17.1 ± 1.72 | 56.2 ± 0.55 | 41.1 ± 0.41 | > 240 | 18.4 ± 0.66 | 17.1 ± 2.97 | 64.2 ± 6.16 | 12 ± 1.15 | 30.3 ± 1.7 | 14.7 ± 0.45 | 23.6 ± 1.73 | CCN(CC)Cc1cccc(CNc2ccnc3cc(Cl)ccc23)c1 [Compound 2, 7-Chloro-N-(3-((diethylamino)methyl)benzyl)quinolin-4-amine] | 20300 ± 3400 | 20600 ± 3920 | –
21.3 ± 2.52 | 19.4 ± 2.18 | 45.6 ± 0.12 | 50.9 ± 0.55 | > 240 | 13.5 ± 0.71 | 21.6 ± 3.11 | 52.7 ± 0.99 | 14.6 ± 0.36 | 12.1 ± 1.2 | 30 ± 15.2 | 13.5 ± 4.66 | CCN(CC)Cc1ccccc1CNc1ccnc2cc(Cl)ccc12 [Compound 1, 7-Chloro-N-(2-((diethylamino)methyl)benzyl)quinolin-4-amine] | 26400 ± 1750 | 27700 ± 1730 | –
– | – | – | – | – | – | – | – | – | – | – | – | CCN(CC)CCCC(C)Nc1ccnc2cc(Cl)ccc12 (stereo not drawn) [CQ, chloroquine] | – | – | IC50 (P. falciparum Dd2; DD2, read-out: Antiplasmodial activity, IC50, Dd2, laboratory A (Marseille), 5% CO2, 10% O2, 85% N2, Dd2 CQ-resistant under these conditions): 522 ± 95.7 nM; IC50 (P. falciparum Dd2; DD2, read-out: Antiplasmodial activity, IC50, Dd2, laboratory B (Paris), candle jar ~17% O2, 3% CO2, 80% N2, Dd2 CQ-sensitive under these conditions): 35.1 ± 12.1 nM; NADPH-dep. t1/2 ([1]; human liver microsomes, [Compd] = 1 μM, [protein] = 0.3 mg/mL, with NADPH): 133.2 ± 15.52 min; microsomal CLint at 1 μM ([1]; microsomes): 17.5 ± 2.03 µL/min/mg; half-life at 1 μM ([1]; microsomes, pH 7.4, NADPH-dep. t1/2, human liver microsomes, [Compd] = 1 μM, [protein] = 0.3 mg/mL, with NADPH): 133 ± 15.5 min; half-life at 1 μM ([1]; microsomes, pH 7.4, NADPH-free t1/2, human liver microsomes, [Compd] = 1 μM, [protein] = 0.3 mg/mL, without NADPH): > 240 min; IC50 ([2]; read-out: Antiplasmodial activity, IC50, K14): 103 ± 92.5 nM; IC50 ([4]; 3D7, read-out: Antiplasmodial activity, IC50, 3D7, laboratory A (Marseille), 5% CO2, 10% O2, 85% N2): 17.6 ± 0.71 nM; IC50 ([4]; 3D7, read-out: Antiplasmodial activity, IC50, 3D7, laboratory B (Paris), candle jar ~17% O2, 3% CO2, 80% N2): 18 ± 12.3 nM; IC50 ([6]; K1, read-out: Antiplasmodial activity, IC50, K1, laboratory A (Marseille), 5% CO2, 10% O2, 85% N2): 1090 ± 164 nM; IC50 ([6]; K1, read-out: Antiplasmodial activity, IC50, K1, laboratory B (Paris), candle jar ~17% O2, 3% CO2, 80% N2): 124 ± 48 nM; IC50 ([7]; FCB1, read-out: Antiplasmodial activity, IC50, FcB1): 111 ± 43 nM; IC50 ([8]; F32, read-out: Antiplasmodial activity, IC50, F32): 33.9 ± 12.3 nM
